Laboratory results taken from US20250073311A1, “DOSAGE REGIME” (ZEALAND PHARMA A/S, priority 2021, published 2025).
Several values for one entry are separate records, joined by “and”; a condition that tells them apart may be missing. Equal values may be shown once. Read-outs that look alike come from different tables or passages of the source. Numbered stars: 1 amine (or outer) side, 2 acyl side, 3 side chain; on linkers, the order of the positions; unused ones are H or OH. Square brackets hold non-standard residues; d marks the D form. Side chains are listed from the residue outwards. Peptide text beside a SMILES is read from it. * marks the point of attachment. C18 diacid = O=C(O)CCCCCCCCCCCCCCCCC(=O)*; γGlu = O=C(O)[C@H](CCC(=O)[*:2])N[*:1]; Aib = CC(C)(N)C(=O)O

Assays:
Type in all cases: in vivo
[1] = Plasma half-life in single ascending dose Phase 1a trial (LC-MS/MS); details: human
Method: Blood sampling for determining Cpd 18 plasma concentrations were performed during the phase la study (outlined in Example 2) at scheduled timepoints. Concentration of Cpd 18 in plasma was measured using a validated LC-MS/MS assay. Pharmacokinetic (PK) endpoints for Cpd 18 were derived from the individual concentration profiles (with hour as time unit). For PK analysis, Cpd 18 concentrations were supplied by the analytical laboratory in nmol/L. Mean measured concentrations per dose level are shown in […].
For determination of λz a linear regression was performed using the logarithm to plasma Cpd. 18 concentration as the response variable and at least three valid concentration measurements of the terminal end period after Cmax. (The exact number of data points depends on the best goodness-of-fit). Cmax is not included in the calculation for λz as this point may be affected by absorption still taking place from the injection site.
The terminal elimination half-life of the plasma Cpd. 18 profile (t½) was calculated by the following formula: […]

[2] = tested on: healthy human subjects; assay: Multiple ascending dose Phase 1b trial, adverse events; details: 7 subjects
Method: A multiple ascending dose Phase 1b trial was conducted for Cpd. 18 investigating the safety of multiple subcutaneous injections of various ascending doses in healthy human subjects. The trial was a Randomized, Double-blind, Placebo-controlled, Multi Ascending Dose Trial assessing Safety, Tolerability, Pharmacokinetics and Pharmacodynamics of Multiple Subcutaneous Dose of Cpd. 18 in Healthy human Subjects.
Four cohorts were dosed with four once weekly subcutaneous administrations. In each cohort, consisting of 10 subjects each, subjects were randomized to either placebo (n=3) or to the following active multiple ascending dose levels (n=7): 4 weekly dose injections of 1.0 mg; 4 weekly dose injections of 2.25 mg; 4 weekly dose injections of 3.5 mg and 1 weekly dose injections of 3.5 mg followed by 3 weekly dose injections of 6.0 mg.
Adverse events (AE) were captured by asking open ended and non-leading questions according to the following wording in the protocol:
• All events meeting the definition of an AE must be collected and reported from the first trial-related activity after the subject has signed the informed consent and until the end of the post-treatment follow-up period. At each contact with the site (Visit or telephone) the subject must be asked about AEs. All AEs, either observed by the Investigator or reported by the subject, must be recorded by the Investigator and evaluated. • The Investigator should record the diagnosis, if possible. If no diagnosis can be made the Investigator should record each sign and symptom as individual AEs. • All AEs must be recorded by the Investigator. One single Adverse Event Form must be used per AE from start to resolution. For Serious Adverse Events (SAE), the Serious Adverse Event Form must also be completed.”
The safety data (incidence/number of subjects) for subjects dosed 4×1.0 mg to 1×3.5 mg plus 3×6.0 mg as well as placebo is shown in Table 10 below.

[3] = tested on: healthy human subjects; assay: Standard meal test (lunch and dinner), Phase 1b trial
Source text: (§1) Reduction in appetite is reflected in the reduction in food intake measured by mixed meal test for breakfast (Table 11) and by measuring caloric intake at standard meals for lunch and dinner (Table 12).
Pre-defined lunch and dinner meals were served at baseline (on Day -1) and after 4th dose (Day 23). Consumption was supervised and leftovers were weighed.

[4] = tested on: healthy human subjects; assay: Mixed meal test (breakfast), Phase 1b trial
Method: as §1
The Mixed Meal Test (MMT) was performed at baseline, at 24 hours, after the first dosing (Day 2) and after the fourth dosing (Day 23). The meal consisted of a fixed nutrient content and the exact initial amount of nutrients were weighed by kitchen staff on a lab scale using the method of weighed intake. Consumption was supervised and leftovers were weighed and recorded as percentage of meal. Adjustment of leftovers on Day 2 will be performed for Day 23 and differences in weight will be calculated in carbohydrates.

[5] = 1 × 3.5 mg plus 3 × 6.0 mg weekly s.c.

SMILES: CC[C@H](C)[C@H](NC(=O)[C@H](Cc1ccccc1)NC(=O)[C@H](CC(=O)O)NC(=O)[C@H](CCCNC(=N)N)NC(=O)[C@H](C)NC(=O)[C@H](C)NC(=O)[C@H](CCC(N)=O)NC(=O)[C@H](CCCCNC(=O)CC[C@H](NC(=O)CCCCCCCCCCCCCCCCC(=O)O)C(=O)O)NC(=O)[C@H](CC(=O)O)NC(=O)[C@H](CC(C)C)NC(=O)[C@@H](NC(=O)[C@@H](NC(=O)[C@H](C)NC(=O)[C@H](CC(C)C)NC(=O)[C@H](CCC(=O)O)NC(=O)[C@H](CO)NC(=O)[C@@H](NC(=O)[C@H](Cc1ccccc1)NC(=O)[C@H](CO)NC(=O)CNC(=O)[C@H](CCC(=O)O)NC(=O)C(C)(C)NC(=O)[C@@H](N)Cc1c[nH]cn1)[C@@H](C)O)[C@@H](C)O)[C@@H](C)CC)C(=O)N[C@@H](C)C(=O)N[C@@H](Cc1c[nH]c2ccccc12)C(=O)N[C@@H](CC(C)C)C(=O)N[C@H](C(=O)N[C@@H](CCC(N)=O)C(=O)N[C@@H](Cc1c[nH]cn1)C(=O)N[C@@H](CCCCN)C(=O)N[C@H](C(=O)N[C@H](C(=O)N[C@@H](CC(=O)O)C(=O)O)[C@@H](C)O)[C@@H](C)CC)[C@@H](C)CC [Compound 18] (H-H[Aib]EGSFTSELATILDK([γGlu-C18 diacid])QAARDFIAWLIQHKITD-OH)
- half-life ([1]; sc, single s.c. dose 0.02 mg, healthy subjects, N 6, read-out: t1/2 Mean (converted)): 140 h
- half-life ([1]; sc, single s.c. dose 0.07 mg, healthy subjects, N 6, read-out: t1/2 Mean (converted)): 126 h
- half-life ([1]; sc, single s.c. dose 0.2 mg, healthy subjects, N 6, read-out: t1/2 Mean (converted)): 129 h
- half-life ([1]; sc, single s.c. dose 0.6 mg, healthy subjects, N 6, read-out: t1/2 Mean (converted)): 110 h
- half-life ([1]; sc, single s.c. dose 1.5 mg, healthy subjects, N 6, read-out: t1/2 Mean (converted)): 120 h
- half-life ([1]; sc, single s.c. dose 3 mg, healthy subjects, N 6, read-out: t1/2 Mean (converted)): 120 h
- half-life ([1]; sc, single s.c. dose 6 mg, healthy subjects, N 6, read-out: t1/2 Mean (converted)): 112 h
- half-life ([1]; sc, single s.c. dose 7.5 mg, healthy subjects, N 6, read-out: t1/2 Mean (converted)): 135 h
- half-life ([1]; subcutaneous, following a single dose, across dose groups, read-out: calculated mean half-life): 110 to 135 h
- Subjects experiencing decreased appetite [2, 5]: 6/7 and 6
- Subjects experiencing nausea [2, 5]: 4
- Subjects experiencing vomiting [2, 5]: 3
- Subjects experiencing decreased appetite ([2]; 4 weekly s.c. doses of 1.0 mg): 0
- Subjects experiencing nausea ([2]; 4 weekly s.c. doses of 1.0 mg): 1
- Subjects experiencing vomiting ([2]; 4 weekly s.c. doses of 1.0 mg): 0
- Subjects experiencing decreased appetite ([2]; 4 weekly s.c. doses of 2.25 mg): 3/7 and 3
- Subjects experiencing nausea ([2]; 4 weekly s.c. doses of 2.25 mg): 1
- Subjects experiencing vomiting ([2]; 4 weekly s.c. doses of 2.25 mg): 0
- Subjects experiencing decreased appetite ([2]; 4 weekly s.c. doses of 3.5 mg): 2/7 and 2
- Subjects experiencing nausea ([2]; 4 weekly s.c. doses of 3.5 mg): 0
- Subjects experiencing vomiting ([2]; 4 weekly s.c. doses of 3.5 mg): 0
- Mean food consumption ([3]; Dinner, After 4th dose (Day 23), cohort 1.0 mg weekly): 682 kcal
- Mean food consumption ([3]; Dinner, After 4th dose (Day 23), cohort 2.25 mg weekly): 585 kcal
- Mean food consumption ([3]; Dinner, After 4th dose (Day 23), cohort 3.5 mg weekly): 594 kcal
- Mean food consumption ([3]; Dinner, After 4th dose (Day 23), cohort 3.5/6.0 mg weekly): 423 kcal
- Mean food consumption ([3]; Dinner, Baseline (Day -1), cohort 1.0 mg): 694 kcal
- Mean food consumption ([3]; Dinner, Baseline (Day -1), cohort 2.25 mg): 679 kcal
- Mean food consumption ([3]; Dinner, Baseline (Day -1), cohort 3.5 mg): 695 kcal
- Mean food consumption ([3]; Dinner, Baseline (Day -1), cohort 3.5/6.0 mg): 694 kcal
- Mean food consumption ([3]; Lunch, After 4th dose (Day 23), cohort 1.0 mg weekly): 705 kcal
- Mean food consumption ([3]; Lunch, After 4th dose (Day 23), cohort 2.25 mg weekly): 649 kcal
- Mean food consumption ([3]; Lunch, After 4th dose (Day 23), cohort 3.5 mg weekly): 647 kcal
- Mean food consumption ([3]; Lunch, After 4th dose (Day 23), cohort 3.5/6.0 mg weekly): 403 kcal
- Mean food consumption ([3]; Lunch, Baseline (Day -1), cohort 1.0 mg): 701 kcal
- Mean food consumption ([3]; Lunch, Baseline (Day -1), cohort 2.25 mg): 638 kcal
- Mean food consumption ([3]; Lunch, Baseline (Day -1), cohort 3.5 mg): 706 kcal
- Mean food consumption ([3]; Lunch, Baseline (Day -1), cohort 3.5/6.0 mg): 671 kcal
- Mean food consumption ([4]; After 1st dose (Day 2), cohort 1.0 mg): 99.0%
- Mean food consumption ([4]; After 1st dose (Day 2), cohort 2.25 mg): 95.4%
- Mean food consumption ([4]; After 1st dose (Day 2), cohort 3.5 mg): 99.2% and 96.2%
- Mean food consumption ([4]; After 1st dose (Day 2), cohort 3.5/6.0 mg): 87.5%
- Mean food consumption ([4]; After 4th dose (Day 23), cohort 1.0 mg weekly): 98.6%
- Mean food consumption ([4]; After 4th dose (Day 23), cohort 2.25 mg weekly): 95.8%
- Mean food consumption ([4]; After 4th dose (Day 23), cohort 3.5 mg weekly): 93.2%
- Mean food consumption ([4]; After 4th dose (Day 23), cohort 3.5/6.0 mg weekly): 62.5%
- Mean food consumption ([4]; Baseline, cohort 1.0 mg): 99.2%
- Mean food consumption ([4]; Baseline, cohort 2.25 mg): 100%
- Mean food consumption ([4]; Baseline, cohort 3.5 mg): 100%
- Mean food consumption ([4]; Baseline, cohort 3.5/6.0 mg): 95.8%
